Results: ChEMBL document CHEMBL5331145, “Discovery of a Novel Bifunctional Steroid Analog, YXG-158, as an Androgen Receptor Degrader and CYP17A1 Inhibitor for the Treatment of Enzalutamide-Resistant Prostate Cancer” (J Med Chem, 2023)
Calls of active or inactive are those of the source. The rule behind the calls is not given here.

Assays:
[1] = Genotoxicity in CHL cells in presence of rat liver S9 fraction by micronucleus test; type: toxicity, Cricetulus griseus; conditions: chinese hamster
[2] = Mutagenicity in Salmonella typhimurium TA1535 in absence of liver S9 fraction by AMES test; type: toxicity; conditions: salmonella enterica subsp. enterica serovar typhimurium
Estrogen receptor = Estrogen receptor (Homo sapiens, UniProt P03372); experiment: Antagonist activity at ERalpha (unknown origin)
Chain of Estrogen receptor (P03372 whole entry): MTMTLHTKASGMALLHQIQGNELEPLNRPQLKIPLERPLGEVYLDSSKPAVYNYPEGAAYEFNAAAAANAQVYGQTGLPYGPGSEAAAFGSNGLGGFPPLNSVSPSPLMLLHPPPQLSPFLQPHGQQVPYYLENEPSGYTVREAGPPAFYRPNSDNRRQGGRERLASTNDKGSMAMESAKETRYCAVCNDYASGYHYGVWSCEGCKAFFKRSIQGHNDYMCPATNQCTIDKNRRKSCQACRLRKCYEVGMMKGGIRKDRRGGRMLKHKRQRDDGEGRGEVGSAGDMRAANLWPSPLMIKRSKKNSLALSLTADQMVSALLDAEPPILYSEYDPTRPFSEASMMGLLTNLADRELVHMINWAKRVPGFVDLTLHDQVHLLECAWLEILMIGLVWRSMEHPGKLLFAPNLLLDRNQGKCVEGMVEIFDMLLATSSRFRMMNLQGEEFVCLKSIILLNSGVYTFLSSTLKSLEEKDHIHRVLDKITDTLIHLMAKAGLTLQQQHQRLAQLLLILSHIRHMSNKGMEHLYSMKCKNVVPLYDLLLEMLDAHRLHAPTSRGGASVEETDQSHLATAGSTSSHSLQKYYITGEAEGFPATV

[3] = Effect on androgen sensitive organs in testosterone propionate stimulated castrated male Sprague-Dawley rat assessed as ventral prostate weight loss at 20 mg/kg, po administered once daily for 10 days and measured 24 hrs post last dose; type: functional; conditions: time 11 day
[4] = Mutagenicity in Salmonella typhimurium TA100 in presence of liver S9 fraction by AMES test; type: toxicity, subcellular; conditions: salmonella enterica subsp. enterica serovar typhimurium
Cytochrome P450 2D6 = Cytochrome P450 2D6 (Homo sapiens, UniProt P10635); experiment: Inhibition of CYP2D6 (unknown origin); type: ADME
Chain of Cytochrome P450 2D6 (P10635 whole entry): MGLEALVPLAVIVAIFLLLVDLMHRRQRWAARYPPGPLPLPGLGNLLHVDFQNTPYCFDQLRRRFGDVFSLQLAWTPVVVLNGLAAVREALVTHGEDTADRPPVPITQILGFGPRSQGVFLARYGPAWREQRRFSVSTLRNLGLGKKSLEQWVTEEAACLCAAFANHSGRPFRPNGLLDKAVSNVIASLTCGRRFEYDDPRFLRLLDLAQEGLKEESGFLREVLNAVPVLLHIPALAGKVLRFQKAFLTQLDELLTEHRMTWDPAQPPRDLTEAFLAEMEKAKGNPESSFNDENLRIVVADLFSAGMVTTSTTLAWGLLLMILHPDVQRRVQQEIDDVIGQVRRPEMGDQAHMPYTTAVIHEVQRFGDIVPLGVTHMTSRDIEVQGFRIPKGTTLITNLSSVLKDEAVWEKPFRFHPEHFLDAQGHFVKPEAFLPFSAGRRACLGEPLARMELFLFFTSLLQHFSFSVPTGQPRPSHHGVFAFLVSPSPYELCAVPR

[5] = Genotoxicity in CHL cells in absence of rat liver S9 fraction by micronucleus test; type: toxicity, cell-based, Cricetulus griseus; conditions: chinese hamster
[6] = target: T1, Steroid 17-alpha-hydroxylase/17,20 lyase (Homo sapiens, UniProt P05093); experiment: Inhibition of recombinant human CYP17A1 using progesterone as substrate incubated for 5 mins in presence of NADPH by LC-MS/MS analysis; type: ADME
T1 sequence (P05093 whole entry): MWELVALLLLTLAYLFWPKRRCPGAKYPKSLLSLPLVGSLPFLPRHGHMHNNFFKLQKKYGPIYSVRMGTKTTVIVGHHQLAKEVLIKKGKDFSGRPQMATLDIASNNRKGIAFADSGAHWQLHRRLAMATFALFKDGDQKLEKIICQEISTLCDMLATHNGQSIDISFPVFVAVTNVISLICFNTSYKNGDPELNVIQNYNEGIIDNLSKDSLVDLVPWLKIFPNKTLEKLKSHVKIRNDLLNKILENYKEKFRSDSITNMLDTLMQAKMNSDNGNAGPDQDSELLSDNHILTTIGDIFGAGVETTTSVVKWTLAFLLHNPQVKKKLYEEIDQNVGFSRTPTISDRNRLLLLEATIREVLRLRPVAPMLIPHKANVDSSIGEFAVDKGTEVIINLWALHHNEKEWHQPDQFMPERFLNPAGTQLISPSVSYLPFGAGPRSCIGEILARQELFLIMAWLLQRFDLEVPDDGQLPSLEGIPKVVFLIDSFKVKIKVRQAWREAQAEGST

Cytochrome P450 3A4 [7] = target: T2, Cytochrome P450 3A4 (Homo sapiens, UniProt P08684); experiment: Inhibition of CYP3A4 (unknown origin) using testosterone as substrate; type: ADME
T2 sequence (P08684 whole entry): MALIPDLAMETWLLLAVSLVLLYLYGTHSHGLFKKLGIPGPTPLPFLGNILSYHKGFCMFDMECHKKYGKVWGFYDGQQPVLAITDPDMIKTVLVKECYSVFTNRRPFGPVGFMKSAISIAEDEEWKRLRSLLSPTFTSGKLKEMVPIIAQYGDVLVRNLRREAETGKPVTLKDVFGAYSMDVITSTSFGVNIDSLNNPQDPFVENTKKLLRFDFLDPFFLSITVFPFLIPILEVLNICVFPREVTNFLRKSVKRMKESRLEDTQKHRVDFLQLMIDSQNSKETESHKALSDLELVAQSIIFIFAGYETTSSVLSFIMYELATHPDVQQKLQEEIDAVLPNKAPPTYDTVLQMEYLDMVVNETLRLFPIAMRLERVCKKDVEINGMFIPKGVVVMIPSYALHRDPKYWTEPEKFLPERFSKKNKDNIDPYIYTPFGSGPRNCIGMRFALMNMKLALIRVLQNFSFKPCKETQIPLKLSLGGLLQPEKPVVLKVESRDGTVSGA

[8] = Mutagenicity in Salmonella typhimurium TA100 in absence of liver S9 fraction by AMES test; type: toxicity; conditions: salmonella enterica subsp. enterica serovar typhimurium
[9] = Mutagenicity in Salmonella typhimurium TA98 in presence of liver S9 fraction by AMES test; type: toxicity, subcellular; conditions: salmonella enterica subsp. enterica serovar typhimurium
[10] = Toxicity in BALB/c mouse xenografted with enzalutamide resistant human LNCaP C4-2B cells assessed as body weight loss at 10 to 30 mg/kg, po administered once daily for 28 days and measured every 3 days; type: organism-based; conditions: in vivo, 672 h, dose 10-30 mg/kg, time 28 day
[11] = Mutagenicity in Salmonella typhimurium TA1537 in absence of liver S9 fraction by AMES test; type: toxicity; conditions: salmonella enterica subsp. enterica serovar typhimurium
[12] = Effect on androgen sensitive organs in testosterone propionate stimulated castrated male Sprague-Dawley rat assessed as seminal vesicles weight loss at 20 mg/kg, po administered once daily for 10 days and measured 24 hrs post last dose; type: functional; conditions: time 11 day
Glucocorticoid receptor = Glucocorticoid receptor (Homo sapiens, UniProt P04150); experiment: Antagonist activity at GR (unknown origin)
[13] = Mutagenicity in Escherichia coli WP2 uvrA in absence of liver S9 fraction by AMES test; type: toxicity
[14] = Antitumor activity against human LNCaP/AR cells xenografted in SCID male mouse assessed as tumor growth inhibition at 10 mg/kg, po administered once daily for 28 days and measured every 3 days; type: functional; conditions: Homo sapiens, LNCaP/AR, 672 h, time 28 day, read-out: TGI
[15] = Toxicity in SCID male mouse xenografted with human LNCaP/AR cells assessed as animal weight loss at 10 to 30 mg/kg, po administered once daily for 28 days and measured every 3 days; type: organism-based; conditions: in vivo, 672 h, dose 10-30 mg/kg, time 28 day
[16] = system: GABA-A receptor; anion channel; experiment: Antagonist activity at GABA-A (unknown origin) at 40 uM relative to control; type: toxicity; conditions: human
Progesterone receptor = Progesterone receptor (Homo sapiens, UniProt P06401); experiment: Antagonist activity at PR (unknown origin)
Chain of Progesterone receptor (P06401 whole entry): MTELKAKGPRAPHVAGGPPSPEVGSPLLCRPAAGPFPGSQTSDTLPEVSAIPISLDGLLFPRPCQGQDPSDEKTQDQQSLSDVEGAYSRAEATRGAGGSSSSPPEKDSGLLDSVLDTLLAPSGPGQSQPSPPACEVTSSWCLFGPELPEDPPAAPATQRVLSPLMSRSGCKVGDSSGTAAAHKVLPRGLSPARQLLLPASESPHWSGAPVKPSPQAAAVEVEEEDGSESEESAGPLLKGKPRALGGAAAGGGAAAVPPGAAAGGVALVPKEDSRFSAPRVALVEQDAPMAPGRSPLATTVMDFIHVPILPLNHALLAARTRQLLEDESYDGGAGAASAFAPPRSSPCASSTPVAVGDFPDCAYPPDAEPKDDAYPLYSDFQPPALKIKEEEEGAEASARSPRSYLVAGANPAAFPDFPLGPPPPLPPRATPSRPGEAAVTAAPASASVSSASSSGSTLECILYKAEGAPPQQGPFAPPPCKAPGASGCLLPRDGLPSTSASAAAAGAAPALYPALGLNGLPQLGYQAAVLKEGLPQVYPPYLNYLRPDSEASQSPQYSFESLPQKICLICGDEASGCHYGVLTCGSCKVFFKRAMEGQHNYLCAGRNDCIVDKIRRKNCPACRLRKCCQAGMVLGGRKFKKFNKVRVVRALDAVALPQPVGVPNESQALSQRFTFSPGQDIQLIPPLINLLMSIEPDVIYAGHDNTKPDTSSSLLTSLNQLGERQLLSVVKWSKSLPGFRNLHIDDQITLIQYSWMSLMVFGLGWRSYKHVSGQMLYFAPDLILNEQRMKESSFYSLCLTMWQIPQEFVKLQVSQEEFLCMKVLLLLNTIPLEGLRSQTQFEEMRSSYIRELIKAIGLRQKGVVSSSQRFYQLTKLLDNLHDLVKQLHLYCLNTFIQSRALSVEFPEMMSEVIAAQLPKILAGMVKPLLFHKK

[17] = Tmax in Sprague-Dawley rat at 10 mg/kg, po measured upto 24 hrs by LC-MS/MS analysis; type: ADME, organism-based; conditions: in vivo
[18] = Mutagenicity in Salmonella typhimurium TA1537 in presence of liver S9 fraction by AMES test; type: toxicity, subcellular; conditions: salmonella enterica subsp. enterica serovar typhimurium
Cytochrome P450 1A2 = Cytochrome P450 1A2 (Homo sapiens, UniProt P05177); experiment: Inhibition of CYP1A2 (unknown origin); type: ADME
Chain of Cytochrome P450 1A2 (P05177 whole entry): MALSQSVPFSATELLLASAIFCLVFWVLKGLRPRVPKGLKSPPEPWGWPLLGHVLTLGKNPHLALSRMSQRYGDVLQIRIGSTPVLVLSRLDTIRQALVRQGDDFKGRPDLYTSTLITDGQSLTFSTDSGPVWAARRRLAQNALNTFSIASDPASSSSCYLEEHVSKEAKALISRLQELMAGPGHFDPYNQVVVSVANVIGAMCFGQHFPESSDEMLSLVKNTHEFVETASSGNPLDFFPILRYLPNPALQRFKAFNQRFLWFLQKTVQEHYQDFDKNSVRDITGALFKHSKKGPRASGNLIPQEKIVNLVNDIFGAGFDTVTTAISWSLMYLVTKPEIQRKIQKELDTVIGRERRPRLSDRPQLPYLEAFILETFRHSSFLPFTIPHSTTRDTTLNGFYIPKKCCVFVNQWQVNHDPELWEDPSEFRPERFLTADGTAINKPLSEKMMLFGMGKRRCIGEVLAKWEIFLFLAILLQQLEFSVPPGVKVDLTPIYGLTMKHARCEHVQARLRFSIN

LNCaP = experiment: Antiproliferative activity against human LNCaP cells incubated for 6 days by CellTiter-Glo assay; type: functional, cell-based
[19] = Mutagenicity in Salmonella typhimurium TA1535 in presence of liver S9 fraction by AMES test; type: toxicity, subcellular; conditions: salmonella enterica subsp. enterica serovar typhimurium
Androgen receptor = target: T3, Androgen receptor (Homo sapiens, UniProt P10275); experiment: Induction of androgen receptor degradation in human LNCaP cells incubated for 24 hrs by ELISA; type: cell-based
T3 sequence (P10275 whole entry): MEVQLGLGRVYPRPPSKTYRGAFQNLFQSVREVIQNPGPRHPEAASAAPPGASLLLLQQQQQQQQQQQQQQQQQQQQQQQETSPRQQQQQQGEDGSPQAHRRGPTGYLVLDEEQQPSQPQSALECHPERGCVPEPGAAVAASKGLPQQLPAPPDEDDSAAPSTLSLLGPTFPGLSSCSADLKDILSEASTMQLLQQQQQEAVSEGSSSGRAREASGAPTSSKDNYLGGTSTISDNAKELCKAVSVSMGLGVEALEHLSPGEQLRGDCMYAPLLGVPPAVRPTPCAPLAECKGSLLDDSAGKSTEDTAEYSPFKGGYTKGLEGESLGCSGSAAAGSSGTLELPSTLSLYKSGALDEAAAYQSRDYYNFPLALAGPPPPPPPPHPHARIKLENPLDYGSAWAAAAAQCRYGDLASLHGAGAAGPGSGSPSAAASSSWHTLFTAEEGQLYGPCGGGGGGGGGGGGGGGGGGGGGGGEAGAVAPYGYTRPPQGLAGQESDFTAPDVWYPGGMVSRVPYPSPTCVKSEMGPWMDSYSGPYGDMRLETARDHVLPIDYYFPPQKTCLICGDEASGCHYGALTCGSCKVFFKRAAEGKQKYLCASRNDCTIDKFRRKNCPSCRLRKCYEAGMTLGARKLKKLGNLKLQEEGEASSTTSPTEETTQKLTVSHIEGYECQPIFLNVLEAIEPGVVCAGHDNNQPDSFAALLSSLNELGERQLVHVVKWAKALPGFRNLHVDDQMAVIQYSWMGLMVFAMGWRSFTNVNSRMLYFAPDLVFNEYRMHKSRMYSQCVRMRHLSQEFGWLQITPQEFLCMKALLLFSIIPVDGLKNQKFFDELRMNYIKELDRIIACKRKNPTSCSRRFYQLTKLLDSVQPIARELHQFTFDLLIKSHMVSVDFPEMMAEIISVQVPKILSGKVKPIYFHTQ

[20] = AUC(0 to t) in Sprague-Dawley rat at 10 mg/kg, po measured upto 24 hrs by LC-MS/MS analysis; type: ADME, organism-based; conditions: in vivo
[21] = Toxicity in SCID male mouse xenografted with human LNCaP/AR cells assessed as tolerability at 10 to 30 mg/kg, po administered once daily for 28 days and measured every 3 days; type: organism-based; conditions: in vivo, 672 h, dose 10-30 mg/kg, time 28 day
[22] = Half life in Sprague-Dawley rat at 10 mg/kg, po measured upto 24 hrs by LC-MS/MS analysis; type: ADME, organism-based; conditions: in vivo
[23] = Cmax in Sprague-Dawley rat at 10 mg/kg, po measured upto 24 hrs by LC-MS/MS analysis; type: ADME, organism-based; design: dose 10 mg/kg, time < 24 hrs, route po; conditions: in vivo
[24] = target: Voltage-gated inwardly rectifying potassium channel KCNH2 (Homo sapiens, UniProt Q12809); experiment: Inhibition of human ERG by patch clamp assay; type: toxicity
Chain of Voltage-gated inwardly rectifying potassium channel KCNH2 (Q12809 whole entry): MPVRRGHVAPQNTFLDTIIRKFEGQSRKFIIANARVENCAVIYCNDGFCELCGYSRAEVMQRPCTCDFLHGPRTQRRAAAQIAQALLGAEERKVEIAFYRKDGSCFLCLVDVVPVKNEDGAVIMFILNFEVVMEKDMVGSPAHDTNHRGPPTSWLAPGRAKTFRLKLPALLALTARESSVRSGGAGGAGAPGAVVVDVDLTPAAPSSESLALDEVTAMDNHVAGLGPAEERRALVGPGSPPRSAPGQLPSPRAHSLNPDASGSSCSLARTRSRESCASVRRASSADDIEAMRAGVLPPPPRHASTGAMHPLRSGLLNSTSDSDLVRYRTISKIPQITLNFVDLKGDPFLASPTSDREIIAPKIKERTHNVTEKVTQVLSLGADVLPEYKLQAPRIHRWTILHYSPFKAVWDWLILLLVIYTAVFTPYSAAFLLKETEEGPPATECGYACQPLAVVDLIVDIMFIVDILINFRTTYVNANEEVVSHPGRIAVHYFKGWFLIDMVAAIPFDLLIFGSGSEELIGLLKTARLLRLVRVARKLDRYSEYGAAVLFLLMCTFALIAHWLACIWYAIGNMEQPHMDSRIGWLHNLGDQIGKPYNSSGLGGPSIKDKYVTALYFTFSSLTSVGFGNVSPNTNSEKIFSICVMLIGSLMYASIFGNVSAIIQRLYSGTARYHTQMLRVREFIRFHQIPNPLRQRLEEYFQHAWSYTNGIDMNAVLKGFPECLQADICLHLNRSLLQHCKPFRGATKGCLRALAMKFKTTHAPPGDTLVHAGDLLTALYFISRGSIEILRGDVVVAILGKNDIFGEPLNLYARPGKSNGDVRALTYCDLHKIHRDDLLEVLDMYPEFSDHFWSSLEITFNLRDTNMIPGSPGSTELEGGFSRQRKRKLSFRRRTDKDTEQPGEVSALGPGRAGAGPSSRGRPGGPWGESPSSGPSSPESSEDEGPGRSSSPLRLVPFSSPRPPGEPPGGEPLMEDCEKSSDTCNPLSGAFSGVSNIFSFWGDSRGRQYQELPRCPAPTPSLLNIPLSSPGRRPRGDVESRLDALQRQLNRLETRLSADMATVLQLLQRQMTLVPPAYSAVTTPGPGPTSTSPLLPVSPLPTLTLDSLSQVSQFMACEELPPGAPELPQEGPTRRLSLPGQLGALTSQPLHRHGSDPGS

Cytochrome P450 2C19 = Cytochrome P450 2C19 (Homo sapiens, UniProt P33261); experiment: Inhibition of CYP2C19 (unknown origin); type: ADME
[25] = Mutagenicity in Salmonella typhimurium TA98 in absence of liver S9 fraction by AMES test; type: toxicity; conditions: salmonella enterica subsp. enterica serovar typhimurium
[26] = Mutagenicity in Escherichia coli WP2 uvrA in presence of liver S9 fraction by AMES test; type: toxicity, subcellular
Cytochrome P450 2C9 = Cytochrome P450 2C9 (Homo sapiens, UniProt P11712); experiment: Inhibition of CYP2C9 (unknown origin); type: ADME
Chain of Cytochrome P450 2C9 (P11712 whole entry): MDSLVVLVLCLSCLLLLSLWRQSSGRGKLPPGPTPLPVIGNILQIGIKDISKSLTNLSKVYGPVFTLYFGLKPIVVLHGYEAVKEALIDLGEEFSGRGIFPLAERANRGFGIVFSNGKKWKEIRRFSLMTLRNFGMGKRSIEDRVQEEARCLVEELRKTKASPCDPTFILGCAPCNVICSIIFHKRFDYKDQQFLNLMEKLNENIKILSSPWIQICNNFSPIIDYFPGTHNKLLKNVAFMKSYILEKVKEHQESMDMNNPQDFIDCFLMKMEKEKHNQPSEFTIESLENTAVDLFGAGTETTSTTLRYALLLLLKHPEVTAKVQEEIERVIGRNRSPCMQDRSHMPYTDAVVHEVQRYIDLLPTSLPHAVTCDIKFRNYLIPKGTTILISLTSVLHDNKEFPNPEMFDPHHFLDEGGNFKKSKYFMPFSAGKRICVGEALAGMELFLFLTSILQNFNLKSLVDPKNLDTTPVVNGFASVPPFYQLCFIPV

Cytochrome P450 3A4 [27] = target: T2, Cytochrome P450 3A4; experiment: Inhibition of CYP3A4 (unknown origin) using midazolam substrate; type: ADME
[28] = Toxicity in SCID male mouse xenografted with human LNCaP/AR cells assessed as tolerability at 10 mg/kg, po administered once daily for 28 days and measured every 3 days; type: organism-based; conditions: in vivo, 672 h, time 28 day
[29] = target: T4, Androgen receptor (Homo sapiens) (UniProt P10275); experiment: Potency index, ratio of galeterone DC50 to test compound DC50 for induction of androgen receptor degradation in human LNCaP cells; type: cell-based
T4 sequence (whole entry): T3 sequence (P10275 whole entry)

[30] = Toxicity in SCID male mouse xenografted with human LNCaP/AR cells assessed as animal weight loss at 10 mg/kg, po administered once daily for 28 days and measured every 3 days; type: organism-based; conditions: in vivo, 672 h, time 28 day
[31] = system: Androgen receptor (Homo sapiens), P10275 [F877L]; experiment: Antagonist activity at androgen receptor F876L mutant expressed in HEK293 cells assessed as reduction in DHT-induced transcriptional activation of androgen receptor incubated for 24 hrs by Steady-Glo assay relative to control; type: cell-based; design: scale not given: the % may be the effect or the level left; conditions: filed as antagonist
Mus musculus = experiment: In vivo induction of androgen receptor in human LNCaP/AR cells xenografted in SCID mouse assessed as reduction in PSA level at 10 mg/kg, po administered once daily for 28 days by ELISA; type: functional, organism-based; conditions: time 28.0 day
[32] = target: Androgen receptor (Homo sapiens) (UniProt P10275); experiment: In vivo induction of androgen receptor in human LNCaP/AR cells xenografted in SCID mouse assessed as reduction in AR protein level at 10 mg/kg, po administered once daily for 28 days by ELISA; conditions: time 28.0 day

Cc1cn(C2=CCC3C4CC=C5C[C@@H](NC(=O)c6ccc(F)cc6)CC[C@]5(C)C4CC[C@]23C)cn1 (stereo partly drawn)
Activity [1]: Non-Toxic
Activity [2]: Non-Toxic
IC50 (Estrogen receptor): 103 nM
Activity [3]: -65%
Activity [4]: Non-Toxic
IC50 (Cytochrome P450 2D6): 50000 nM
Activity [5]: Non-Toxic
IC50 [6]: 100 nM
IC50 (Cytochrome P450 3A4 [7]): 810 nM
Activity [8]: Non-Toxic
Activity [9]: Non-Toxic
Activity [10]: Non-Toxic
Activity [11]: Non-Toxic
Activity [12]: -64%
IC50 (Glucocorticoid receptor): > 30000 nM
Activity [13]: Non-Toxic
inhibition in vivo at 10 mg/kg [14]: 56%
Activity [15]: Non-Toxic
inhibition (INH) [16]: Not Active
IC50 (Progesterone receptor): > 30000 nM
Tmax [17]: 4 h
Activity [18]: Non-Toxic
IC50 (Cytochrome P450 1A2): 25000 nM
IC50 (LNCaP): 473 nM
Activity [19]: Non-Toxic
EC50 (Androgen receptor): 1280 nM
AUCt [20]: 68872 h/ng/mL
Activity [21]: Non-Toxic
half-life [22]: 3.28 h
Cmax [23]: 6430 ng/mL
IC50 [24]: > 40000 nM
IC50 (Cytochrome P450 2C19): 4100 nM
Activity [25]: Non-Toxic
Activity [26]: Non-Toxic
IC50 (Cytochrome P450 2C9): 30800 nM
IC50 (Cytochrome P450 3A4 [27]): 1250 nM

Cc1cn(C2=CCC3C4CC=C5C[C@@H](NC(=O)c6ccc(F)cc6F)CC[C@]5(C)C4CC[C@]23C)cn1 (stereo partly drawn)
Activity [3]: -65%
Activity [28]: Non-Toxic
IC50 [6]: 127 nM
Activity [12]: -65%
Ratio [29]: 8.6
inhibition in vivo at 10 mg/kg [14]: 50%
Activity [30]: Non-Toxic
Activity [31]: 41.6%
Tmax [17]: 6 h
IC50 (LNCaP): 327 nM
Activity (Mus musculus): Active
EC50 (Androgen receptor): 1680 nM
AUCt [20]: 22542 h/ng/mL
half-life [22]: 6.02 h
Cmax [23]: 1520 ng/mL
IC50 [24]: > 40000 nM
Activity [32]: inactive
